The source of these data is PubChem BioAssay AID1745844 (Carcinogenic Potency Database (CPDB), 2022).

The subject of the data set is rodent lifetime carcinogenesis bioassay, tumor incidence TD50. In words: chronic cancer bioassays in animals – CPDB, compiled studies (AID 1745844).
Setting [1] is: mouse, strain ddNi, males, in feed, site: liver, lesion: adenoma-like tumor, dosed 160 weeks, study length 160 weeks.

Molecules are shown by their SMILES. Values joined by “and” are separate entries in the source; they are usually repeats but may differ in a detail not shown here. Identical values can stand only once. Active and inactive are the calls of the source. No rule for the calls is given here.

Take `Cc1cc(C)c(N)cc1C`: the TD50 (in general, the dose at which the toxic effect under study appears in half of the subjects) (mouse, strain B6C3F1, females, in feed, site: any site (literature study), lesion: several types, types named in the paper, dosed 101 weeks, study length 101 weeks) came to 22.4 mg/kg/day; the TD50 (mouse, strain B6C3F1, females, in feed, site: liver, lesion: hepatocellular adenoma + hepatocellular carcinoma + neoplastic nodule, dosed 101 weeks, study length 101 weeks) amounted to 6.13 mg/kg/day; the TD50 (mouse, strain B6C3F1, females, in feed, site: liver, lesion: hepatocellular carcinoma, dosed 101 weeks, study length 101 weeks) was 6.13 mg/kg/day; the TD50 (mouse, strain B6C3F1, females, in feed, site: lung, lesion: alveolar/bronchiolar adenoma + alveolar/bronchiolar carcinoma, dosed 101 weeks, study length 101 weeks) came out at 47.6 mg/kg/day; the TD50 (mouse, strain B6C3F1, males, in feed, site: any site (literature study), lesion: several types, types named in the paper, dosed 101 weeks, study length 101 weeks) was 52.5 mg/kg/day (inactive); the TD50 (mouse, strain B6C3F1, males, in feed, site: liver, lesion: hepatocellular adenoma + hepatocellular carcinoma + neoplastic nodule, dosed 101 weeks, study length 101 weeks) worked out at 14.4 mg/kg/day. Further, the TD50 by setting is: (mouse, strain CD-1 HaM/ICR, females, in feed, site: any site (literature study), lesion: several types, types named in the paper, dosed 77 weeks, study length 98 weeks) 47.2 mg/kg/day; (mouse, strain CD-1 HaM/ICR, females, in feed, site: liver, lesion: hepatoma, dosed 77 weeks, study length 98 weeks) 62.9 mg/kg/day and 62.3 mg/kg/day; (mouse, strain CD-1 HaM/ICR, females, in feed, site: liver, lesion: several types, types named in the paper, dosed 77 weeks, study length 98 weeks) 60.4 mg/kg/day; (mouse, strain CD-1 HaM/ICR, females, in feed, site: lung, lesion: several types, types named in the paper, dosed 77 weeks, study length 98 weeks) 52.8 mg/kg/day and 64.7 mg/kg/day; (mouse, strain CD-1 HaM/ICR, males, in feed, site: all sites, lesion: all vascular tumors, dosed 77 weeks, study length 98 weeks) 260 mg/kg/day; (mouse, strain CD-1 HaM/ICR, males, in feed, site: any site (literature study), lesion: several types, types named in the paper, dosed 77 weeks, study length 98 weeks) 40.3 mg/kg/day. The TD50 was 46.2 mg/kg/day and 44.2 mg/kg/day (mouse, strain CD-1 HaM/ICR, males, in feed, site: liver, lesion: hepatoma, dosed 77 weeks, study length 98 weeks); 35.4 mg/kg/day (mouse, strain CD-1 HaM/ICR, males, in feed, site: liver, lesion: several types, types named in the paper, dosed 77 weeks, study length 98 weeks); 40 mg/kg/day and 63 mg/kg/day (mouse, strain CD-1 HaM/ICR, males, in feed, site: lung, lesion: several types, types named in the paper, dosed 77 weeks, study length 98 weeks); 37.2 mg/kg/day (rat, strain Charles River CD (Sprague-Dawley), males, in feed, site: any site (literature study), lesion: several types, types named in the paper, dosed 77 weeks, study length 98 weeks); 98.5 mg/kg/day (rat, strain Charles River CD (Sprague-Dawley), males, in feed, site: liver, lesion: hepatoma, dosed 77 weeks, study length 98 weeks); 47.9 mg/kg/day (rat, strain Charles River CD (Sprague-Dawley), males, in feed, site: liver, lesion: several types, types named in the paper, dosed 77 weeks, study length 98 weeks). Also, the TD50 runs as follows: (rat, strain Fischer 344, females, in feed, site: any site (literature study), lesion: several types, types named in the paper, dosed 101 weeks, study length 101 weeks) 396 mg/kg/day; (rat, strain Fischer 344, females, in feed, site: liver + lung, lesion: hepatocellular carcinoma + neoplastic nodule + alveolar/bronchiolar adenoma + alveolar/bronchiolar carcinoma, dosed 101 weeks, study length 101 weeks) 20.4 mg/kg/day; (rat, strain Fischer 344, females, in feed, site: liver, lesion: hepatocellular adenoma + hepatocellular carcinoma + neoplastic nodule, dosed 101 weeks, study length 101 weeks) 27.2 mg/kg/day; (rat, strain Fischer 344, females, in feed, site: liver, lesion: hepatocellular carcinoma + neoplastic nodule, dosed 101 weeks, study length 101 weeks) 27.2 mg/kg/day; (rat, strain Fischer 344, females, in feed, site: liver, lesion: hepatocellular carcinoma, dosed 101 weeks, study length 101 weeks) 142 mg/kg/day; (rat, strain Fischer 344, females, in feed, site: lung, lesion: alveolar/bronchiolar adenoma + alveolar/bronchiolar carcinoma, dosed 101 weeks, study length 101 weeks) 88.1 mg/kg/day. The TD50 (rat, strain Fischer 344, males, in feed, site: any site (literature study), lesion: several types, types named in the paper, dosed 101 weeks, study length 101 weeks) turned out to be 138 mg/kg/day; the TD50 (rat, strain Fischer 344, males, in feed, site: liver, lesion: bile duct carcinoma, dosed 101 weeks, study length 101 weeks) stood at 268 mg/kg/day; the TD50 (rat, strain Fischer 344, males, in feed, site: liver, lesion: hepatocellular adenoma + hepatocellular carcinoma + neoplastic nodule, dosed 101 weeks, study length 101 weeks) worked out at 43.8 mg/kg/day; the TD50 (rat, strain Fischer 344, males, in feed, site: liver, lesion: hepatocellular carcinoma + neoplastic nodule, dosed 101 weeks, study length 101 weeks) was 43.8 mg/kg/day; the TD50 (rat, strain Fischer 344, males, in feed, site: liver, lesion: hepatocellular carcinoma, dosed 101 weeks, study length 101 weeks) is 71.8 mg/kg/day; the TD50 (rat, strain Fischer 344, males, in feed, site: lung, lesion: alveolar/bronchiolar adenoma + alveolar/bronchiolar carcinoma, dosed 101 weeks, study length 101 weeks) came to 180 mg/kg/day. The carcinogen call (rat, strain Charles River CD (Sprague-Dawley), males, in feed, site: subcutaneous tissue, lesion: several types, types named in the paper, dosed 77 weeks, study length 98 weeks) is “positive”.
As for `CC(=O)C1C(=O)C=C(C)OC1=O` (stereo not given), the carcinogen call was “negative (inactive)” (mouse, strain B6AKF1, females, oral dosing, site: any site (literature study), lesion: several types, types named in the paper, dosed 76 weeks, study length 76 weeks); “negative (inactive)” (mouse, strain B6AKF1, females, oral dosing, site: liver, lesion: hepatoma, dosed 76 weeks, study length 76 weeks); “negative (inactive)” (mouse, strain B6AKF1, females, oral dosing, site: lung, lesion: adenoma, dosed 76 weeks, study length 76 weeks); “negative (inactive)” (mouse, strain B6AKF1, males, oral dosing, site: any site (literature study), lesion: several types, types named in the paper, dosed 76 weeks, study length 76 weeks); “negative (inactive)” (mouse, strain B6AKF1, males, oral dosing, site: liver, lesion: hepatoma, dosed 76 weeks, study length 76 weeks); “negative (inactive)” (mouse, strain B6AKF1, males, oral dosing, site: lung, lesion: adenoma, dosed 76 weeks, study length 76 weeks). The carcinogen call reads like this: (mouse, strain B6C3F1, females, oral dosing, site: any site (literature study), lesion: one or several types, types not named, dosed 76 weeks, study length 76 weeks) “negative (inactive)”; (mouse, strain B6C3F1, females, oral dosing, site: liver, lesion: hepatoma, dosed 76 weeks, study length 76 weeks) “negative (inactive)”; (mouse, strain B6C3F1, females, oral dosing, site: lung, lesion: several types, types named in the paper, dosed 76 weeks, study length 76 weeks) “negative (inactive)”; (mouse, strain B6C3F1, males, oral dosing, site: liver, lesion: hepatoma, dosed 76 weeks, study length 76 weeks) “negative (inactive)”; (mouse, strain B6C3F1, males, oral dosing, site: lung, lesion: several types, types named in the paper, dosed 76 weeks, study length 76 weeks) “negative (inactive)”. The TD50 (mouse, strain B6C3F1, males, oral dosing, site: any site (literature study), lesion: several types, types named in the paper, dosed 76 weeks, study length 76 weeks) was 202 mg/kg/day (inactive).
For the molecule `NCCS(=O)(=O)O`, the carcinogen call was “negative (inactive)” (rat, strain Wistar, females, in feed, site: mammary gland, lesion: fibroadenoma, dosed 78 weeks, study length 78 weeks) and “negative (inactive)” (rat, strain Wistar, males, in feed, site: mammary gland, lesion: fibroadenoma, dosed 78 weeks, study length 78 weeks).
Regarding `C=C/C1=C/C(C)C(C)(OC(C)=O)C(=O)OCC2=CC[N+]3(C)CCC(OC1=O)C23O` (stereo not given), the TD50 is, setting by setting: (rat, strain ACI, both sexes, in drinking water, site: liver, lesion: hemangioendothelial sarcoma, dosed 48 weeks, study length 68 weeks) 3.01 mg/kg/day; (rat, strain ACI, both sexes, in drinking water, site: liver, lesion: neoplastic nodule, dosed 48 weeks, study length 68 weeks) 0.697 mg/kg/day; (rat, strain ACI, both sexes, in drinking water, site: liver, lesion: several types, types named in the paper, dosed 48 weeks, study length 68 weeks) 0.5 mg/kg/day.
For the molecule `Cc1cc(O)c2c(c1O)C(=O)C13C(=C2O)C(=O)C2C(O)C1C1C(O)C3C(=O)C3=C(O)c4c(O)cc(C)c(O)c4C(=O)C321` (stereo not given), the TD50 runs as follows: (mouse, strain ddNi, females, in feed, site: liver, lesion: liver-cell adenoma, dosed 160 weeks, study length 160 weeks) 122 mg/kg/day; (mouse, strain ddNi, females, in feed, site: liver, lesion: liver-cell carcinoma, dosed 160 weeks, study length 160 weeks) 248 mg/kg/day; (mouse, strain ddNi, females, in feed, site: liver, lesion: several types, types named in the paper, dosed 160 weeks, study length 160 weeks) 79.4 mg/kg/day; under setting [1], 113 mg/kg/day; (mouse, strain ddNi, males, in feed, site: liver, lesion: hepatoma, dosed 160 weeks, study length 160 weeks) 89.5 mg/kg/day and 74.3 mg/kg/day and 113 mg/kg/day; (mouse, strain ddNi, males, in feed, site: liver, lesion: liver-cell adenoma, dosed 160 weeks, study length 160 weeks) 83.7 mg/kg/day and 25.1 mg/kg/day and 231 mg/kg/day. Also, the TD50 is, setting by setting: (mouse, strain ddNi, males, in feed, site: liver, lesion: liver-cell carcinoma, dosed 160 weeks, study length 160 weeks) 332 mg/kg/day; (mouse, strain ddNi, males, in feed, site: liver, lesion: several types, types named in the paper, dosed 160 weeks, study length 160 weeks) 14.8 mg/kg/day. In addition, the carcinogen call under setting [1] was “positive”.
Consider `CC(CCl)OC(C)CCl` (stereo not given), for which the TD50 was 231 mg/kg/day (mouse, strain B6C3F1, females, by gavage, site: any site (literature study), lesion: several types, types named in the paper, dosed 103 weeks, study length 106 weeks); 311 mg/kg/day (mouse, strain B6C3F1, females, by gavage, site: lung, lesion: alveolar/bronchiolar adenoma + alveolar/bronchiolar carcinoma, dosed 103 weeks, study length 106 weeks); 381 mg/kg/day (mouse, strain B6C3F1, females, by gavage, site: lung, lesion: alveolar/bronchiolar adenoma, dosed 103 weeks, study length 106 weeks); 1650 mg/kg/day (mouse, strain B6C3F1, females, by gavage, site: stomach, lesion: squamous-cell carcinoma + squamous-cell papilloma, dosed 103 weeks, study length 106 weeks); 116 mg/kg/day (mouse, strain B6C3F1, males, by gavage, site: any site (literature study), lesion: several types, types named in the paper, dosed 103 weeks, study length 105 weeks); 138 mg/kg/day (mouse, strain B6C3F1, males, by gavage, site: liver, lesion: hepatocellular adenoma + hepatocellular carcinoma + neoplastic nodule, dosed 103 weeks, study length 105 weeks). Moreover, the TD50 runs as follows: (mouse, strain B6C3F1, males, by gavage, site: liver, lesion: hepatocellular adenoma + hepatocellular carcinoma, dosed 103 weeks, study length 105 weeks) 138 mg/kg/day; (mouse, strain B6C3F1, males, by gavage, site: liver, lesion: hepatocellular carcinoma, dosed 103 weeks, study length 105 weeks) 229 mg/kg/day; (mouse, strain B6C3F1, males, by gavage, site: lung, lesion: alveolar/bronchiolar adenoma + alveolar/bronchiolar carcinoma, dosed 103 weeks, study length 105 weeks) 259 mg/kg/day; (mouse, strain B6C3F1, males, by gavage, site: lung, lesion: alveolar/bronchiolar adenoma, dosed 103 weeks, study length 105 weeks) 306 mg/kg/day; (rat, strain Fischer 344, females, by gavage, site: any site (literature study), lesion: several types, types named in the paper, dosed 103 weeks, study length 105 weeks) 65.6 mg/kg/day (inactive); (rat, strain Fischer 344, males, by gavage, site: any site (literature study), lesion: several types, types named in the paper, dosed 103 weeks, study length 104 weeks) 101 mg/kg/day (inactive).
With `N/C(=N\O)c1ccc([N+](=O)[O-])o1`, the TD50 (rat, strain Sprague-Dawley, females, in feed, site: any site (literature study), lesion: several types, types named in the paper, dosed 46 weeks, study length 66 weeks) is 42 mg/kg/day (inactive).
